Patent US20080280891A1, “Anti-cancer agents and uses thereof” (Locus Pharmaceuticals, Inc., priority 2006, published 2008)
pIC50: −log10 of the molar value.

What was measured:
Type in all cases: cell-based
Hela cells = assay: Cell viability assay (WST-1), Hela cells; conditions: Homo sapiens, HeLa, WST-1, 48-72 hrs, 0.5% fetal calf serum
Protocol: (§1) Jurkat and Hela cells were cultured in RPMI and EMEM media, respectively, containing 0.5% fetal calf serum. Cells were plated in a volume of 100 μL in a 96 well format. Test compounds were included in the culture media at concentrations ranging from 1 nM to 10 μM for a period of 48-72 hrs. Cell viability was determined using the WST-1 calorimetric mitochondrial reduction assay. Briefly, 10 μL of WST-1 reagent was included in the culture well for a period of 1 to 4 hrs. The WST-1 reaction was read on a multiwell spectrophotometer as the difference in the absorbance between 450 nm and 600 nm (baseline). Absorbance was proportional to the number of living cells in the culture well. Concentration response curves and IC50 values were calculated using GraphPAD Prism graphing and curve fitting program.

[1] = test system: Jurkat T-cell leukemic cells; assay: Cell cycle assay (Example 163), G2/M block in Jurkat cells; conditions: Homo sapiens, Jurkat, 24 h, flow cytometry (PI), Table 2
Protocol: (§2) MCF-7 breast cancer cells and Jurkat T-cell leukemic cells were grown (and maintained) in EMEM and RPMI media, respectively, containing 10% fetal calf serum.
Test agents were added a concentration of 0.1 μM. Twenty-fours after test agent addition, cells were analyzed for cell cycle status as described below.
(§3) Cell cycle status was analyzed by flow cytometry. Briefly, cells were collected and washed with FACs buffer (Pharmingen) and resuspended and fixed in 1 mL of 80% ethanol for 1 hr. Cells were washed with FACs buffer and resuspended in propidium iodide(PI)/RNase staining buffer (Pharmingen). PI is a fluorescent dye that labels nucleic acids such as DNA. The fluorescence within a cell (in the presence of PI) is proportional to the amount of DNA within a cell. The cell content of DNA is an indices of status in the cell cycle. […] Cells in the S phase have DNA content that lies between these extremes.
(§4) For testing of cell cycle effects of test agents the percentage of cells within the G1 and G2/M phase were measured.

[2] = test system: MCF-7 breast cancer cells; assay: Cell cycle assay (Example 163), G2/M block in MCF-7 cells; conditions: Homo sapiens, MCF7, 24 h, flow cytometry (PI), Table 2
Protocol: as §2
Cells were allowed to adhere for 24 hrs. After adherence, cell culture media was changed to that containing 0.5% FCS. Thirty minutes post-media change, test compounds were added at a concentration of 1 μM. Twenty-fours after test agent addition, cells were analyzed for cell cycle status as described below.
as §3, §4

Jurkat cells = assay: Cell viability assay (WST-1), Jurkat cells; conditions: Homo sapiens, WST-1, 48-72 hrs, 0.5% fetal calf serum
Protocol: as §1

SMILES	pIC50 (Hela cells)	activation at 0.1 µM [1]	activation at 1 µM [2]	pIC50 (Jurkat cells)
Oc1cc(Nc2cccnc2)cc(-c2cccc3c2CCC3)c1 [3-Indan-4-yl-5-(pyridin-3-ylamino)-phenol]	4.52 to 6.00	< 50%	< 50%	–
COc1ccc(Cc2c(O)cc(Nc3cccnc3)cc2-c2cccc3sccc23)cc1 [3-benzo[b]thiophen-4-yl-2-(4-methoxy-benzyl)-5-(pyridin-3-ylamino)-phenol]	4.52 to 6.00	≥ 50%	< 50%	4.52 to 6.00
CN(C)c1cccc(-c2cc(O)cc(Nc3cccnc3)c2)c1 [3′-Dimethylamino-5-(pyridin-3-ylamino)-biphenyl-3-ol]	4.52 to 6.00	< 50%	< 50%	4.52 to 6.00
Oc1cc(Nc2cccnc2)cc(-c2ccccc2C(F)(F)F)c1 [5-(Pyridin-3-ylamino)-2′-trifluoromethyl-biphenyl-3-ol]	4.52 to 6.00	≥ 50%	< 50%	< 5.52
N#Cc1cnc(Nc2cc(O)cc(-c3cccc4[nH]ccc34)c2)cn1 [5-[3-Hydroxy-5-(1H-indol-4-yl)-phenylamino]-pyrazine-2-carbonitrile]	4.52 to 6.00	< 50%	≥ 50%	< 5.52
Oc1cc(Nc2ccc(O)nc2)cc(-c2cccc3[nH]ccc23)c1 [5-[3-Hydroxy-5-(1H-indol-4-yl)-phenylamino]-pyridin-2-ol]	6.00 to 9.00	< 50%	–	4.52 to 6.00
O=C(c1cc(O)cc(-c2cccc3[nH]ccc23)c1)c1cccnc1Cl [(2-Chloro-pyridin-3-yl)-[3-hydroxy-5-(1H-indol-4-yl)-phenyl]-methanone]	4.52 to 6.00	< 50%	< 50%	4.52 to 6.00
O=C(c1cccnc1)c1ccc(O)c(C23CC4CC(CC(C4)C2)C3)c1 [(3-Adamantan-1-yl-4-hydroxy-phenyl)-pyridin-3-yl-methanone]	< 5.52	< 50%	< 50%	4.52 to 6.00
Nc1ccc(C(=O)c2cc(O)cc(-c3cccc4[nH]ccc34)c2)cn1 [(6-Amino-pyridin-3-yl)-[3-hydroxy-5-(1H-indol-4-yl)-phenyl]-methanone]	4.52 to 6.00	< 50%	≥ 50%	6.00 to 9.00
O=C(c1ccc(Cl)nc1)c1cc(O)cc(-c2cccc3[nH]ccc23)c1 [(6-Chloro-pyridin-3-yl)-[3-hydroxy-5-(1H-indol-4-yl)-phenyl]-methanone]	6.00 to 9.00	≥ 50%	< 50%	–
CS(=O)(=O)Nc1cccc(-c2cc(O)cc(Nc3cccnc3)c2)c1 [N-[5′-Hydroxy-3′-(pyridin-3-ylamino)-biphenyl-3-yl]-methanesulfonamide]	4.52 to 6.00	< 50%	≥ 50%	4.52 to 6.00
O=[N+]([O-])c1cc(Nc2cccnc2)cc(-c2cccc3[nH]ccc23)c1 [[3-(1H-Indol-4-yl)-5-nitro-phenyl]-pyridin-3-yl-amine]	4.52 to 6.00	< 50%	< 50%	6.00 to 9.00
COc1ccc(COc2cc(Nc3cccnc3)cc(-c3cccc4sccc34)c2)cc1 [[3-Benzo[b]thiophen-4-yl-5-(4-methoxy-benzyloxy)-phenyl]-pyridin-3-yl-amine]	4.52 to 6.00	–	–	4.52 to 6.00
O=C(c1ccc(O)nc1)c1cc(O)cc(-c2cccc3[nH]ccc23)c1 [[3-Hydroxy-5-(1H-indol-4-yl)-phenyl]-(6-hydroxypyridin-3-yl)-methanone]	6.00 to 9.00	< 50%	–	4.52 to 6.00
Cc1ccc(C(=O)c2cc(O)cc(-c3cccc4[nH]ccc34)c2)cn1 [[3-Hydroxy-5-(1H-indol-4-yl)-phenyl]-(6-methyl-pyridin-3-yl)-methanone]	4.52 to 6.00	< 50%	–	6.00 to 9.00
ON=C(c1cccnc1)c1cc(O)cc(-c2cccc3[nH]ccc23)c1 [[3-Hydroxy-5-(1H-indol-4-yl)-phenyl]-pyridin-3-yl-methanone oxime]	4.52 to 6.00	< 50%	< 50%	–
COc1cc(-c2cccc3[nH]ccc23)nc(Nc2cccnc2)n1 [[4-(1H-Indol-4-yl)-6-methoxy-pyrimidin-2-yl]-pyridin-3-ylamine]	4.52 to 6.00	< 50%	< 50%	–
